Data set [1] concerns Staphylococcus aureus. Briefly: Antibacterial activity against methicillin-resistant Staphylococcus aureus BAA-1707 assessed as inhibition of bacterial growth incubated for 16 to 18 hrs by CLSI protocol based two fold serial dilution method. The note with it: time hrs 16-18. Format: functional.
Data set [2] can be described thus: Stability of the compound in methicillin-resistant Staphylococcus aureus BAA-1707 for 16 to 18 hrs. Format: ADME. Particulars: time 16-18 hrs.

Converted amounts (≈) assume the structure as drawn. Some results are limits rather than exact numbers.

In ChEMBL document CHEMBL4699467, “Progress towards a stable cephalosporin-halogenated phenazine conjugate for antibacterial prodrug applications” (Bioorg Med Chem Lett, 2020) one finds MIC and Stabilty data, which are given here for two compounds.

The MIC is the lowest concentration that inhibits growth of the organism. Regarding `Oc1c(Br)cc(Br)c2nc3ccccc3nc12`, the minimum inhibitory concentration (MIC) in data set [1] is 1 µM (≈ 0.354 µg/mL).

Regarding `O=C(Cc1cccs1)N[C@@H]1C(=O)N2C(C(=O)OC(c3ccccc3)c3ccccc3)=C(COC(=O)Oc3c(Br)cc(Br)c4nc5ccccc5nc34)CS[C@H]12`, the minimal inhibitory concentration (MIC) in data set [1] is greater than 100 µM. For the same compound, in data set [2], the Stabilty result is given as “Stable”.
